From patent US20230116972A1, “CD38 MODULATORS AND METHODS OF USE THEREOF” (Cytokinetics, Inc., priority 2021, published 2023)

Experiments:
[1] = biological target: T1, human CD38 (Homo sapiens, UniProt P28907); experiment: human recombinant CD38 enzyme assay (hydrolysis of NAD+); type: biochemical; conditions: human recombinant CD38, 0.4 nM enzyme, 62.5 μM NAD+; read-out: hCD38 BioChem IC50
T1 sequence (P28907 1-300): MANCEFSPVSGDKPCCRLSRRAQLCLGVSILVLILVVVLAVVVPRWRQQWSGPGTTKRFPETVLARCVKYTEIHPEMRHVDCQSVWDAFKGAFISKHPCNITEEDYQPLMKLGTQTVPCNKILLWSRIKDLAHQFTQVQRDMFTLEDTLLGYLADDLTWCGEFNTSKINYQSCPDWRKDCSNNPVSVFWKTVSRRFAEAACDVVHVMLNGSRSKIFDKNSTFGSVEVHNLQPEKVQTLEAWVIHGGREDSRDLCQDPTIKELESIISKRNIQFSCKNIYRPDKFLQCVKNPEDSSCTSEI
Experimental: (§1) Compounds described herein were assayed for their ability to inhibit the hydrolysis of NAD+ by the protein CD38. The human and mouse recombinant enzyme assays measure the inhibition of the enzyme activity by compounds using recombinant enzymes and substrates in a buffered cell-free system. The assay conditions closely mimic cellular environments. Dose responses were measured using an assay to detect the hydrolysis of NAD+. All experiments were performed in the 384-well format. […] Enzyme reactions were initiated with the addition of 10 μL of a solution containing NAD+ substrate. Subsequent detection of remaining NAD+ was determined by first converting NAD+ to NADH using alcohol dehydrogenase, then using the resulting NADH to reduce resazurine to the fluorescent product resorufin. […] Following an incubation of 60 min at ambient temperature, 10 μL of 120 mM ethanol+20 U/ml alcohol dehydrogenase+30 mM semicarbazide+0.03 mM CD38 inhibitor in 50 mM HEPES, pH 7.5, 0.2 mg/ml BSA, was added and incubated at ambient temperature for 15 min. Then 10 μl 0.32 mM NaOH was added to stop the ADH reaction (plates incubated at ambient temperature for 15 min), followed by 30 μL of 0.05 mM resazurine+1000 mU/ml Diaphorase in 200 mM Tris-HCl, pH 7.7 for 15 min at ambient temperature. The plates were read for fluorescence (Excitation/Emission=540 nm/590 nm) using an EnVision plate reader. […] Note that, in Table 4, the “Compound No” corresponds to the compound numbers in Table 1.

[2] = biological target: T2, mouse CD38 (Mus musculus, UniProt P56528); experiment: mouse recombinant CD38 enzyme assay (hydrolysis of NAD+); type: biochemical; conditions: read-out: mCD38 BioChem IC50
T2 sequence (P56528 1-304): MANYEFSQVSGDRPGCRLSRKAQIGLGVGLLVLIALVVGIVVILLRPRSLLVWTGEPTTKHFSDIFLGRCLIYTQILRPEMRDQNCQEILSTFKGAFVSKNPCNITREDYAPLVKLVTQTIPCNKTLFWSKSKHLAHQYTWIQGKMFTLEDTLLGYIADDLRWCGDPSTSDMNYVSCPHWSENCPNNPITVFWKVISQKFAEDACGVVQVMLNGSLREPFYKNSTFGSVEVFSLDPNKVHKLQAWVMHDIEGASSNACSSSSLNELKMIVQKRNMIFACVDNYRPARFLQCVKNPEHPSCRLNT
Experimental: as §1

Row | Compound | IC50 [1] [µM] | IC50 [2] [µM]
1 | Cn1cncc1-c1ccnc(C(=O)N[C@H]2C[C@](O)(c3ccccc3)C2)n1 [Compound 310, N-((1s,3s)-3-hydroxy-3-phenylcyclobutyl)-4-(1-methyl-1H-imidazol-5-yl)pyrimidine-2-carboxamide] | 0.354 | 0.105
2 | O=C(N[C@H]1C[C@@H](c2ccnc(C(F)(F)F)c2)C1)c1nccc(-n2ccnc2)n1 [Compound 271, 4-(1H-imidazol-1-yl)-N-((1s,3s)-3-(2-(trifluoromethyl)pyridin-4-yl)cyclobutyl)pyrimidine-2-carboxamide] | 2.15 | 0.415
3 | C[C@H]1CC[C@H](NC(=O)c2ccnc(-c3cncs3)n2)CC1 [Compound 112, N-((1r,4r)-4-methylcyclohexyl)-2-(thiazol-5-yl)pyrimidine-4-carboxamide] | 0.639 | 0.158
4 | COCCO[C@H]1CC[C@H](NC(=O)c2nccc(-c3cncn3C)n2)C1 [Compound 344, N-((1S,3S)-3-(2-methoxyethoxy)cyclopentyl)-4-(1-methyl-1H-imidazol-5-yl)pyrimidine-2-carboxamide] | 0.417 | 0.0469
5 | Cc1ccc(NC(=O)c2cccc(-c3cncs3)n2)cn1 [Compound 51, N-(6-methylpyridin-3-yl)-6-(thiazol-5-yl)picolinamide] | 1.2 | 0.487
6 | CO[C@H]1CC[C@H](NC(=O)c2nc(-c3cncn3C)cnc2C)CC1 [Compound 298, N-((1r,4r)-4-methoxycyclohexyl)-3-methyl-6-(1-methyl-1H-imidazol-5-yl)pyrazine-2-carboxamide] | 0.319 | 0.166
7 | O=C(Nc1ccc(C(F)F)nc1)c1nccc(-c2cncs2)n1 [Compound 150, N-(6-(difluoromethyl)pyridin-3-yl)-4-(thiazol-5-yl)pyrimidine-2-carboxamide] | 1.06 | 4.99
8 | Cc1cnc(-c2cncn2C)nc1C(=O)N[C@H]1CC[C@H](O)CC1 [Compound 321, 5-Methyl-2-(3-methylimidazol-4-yl)-N-[(1r,4r)-4-hydroxycyclohexyl]pyrimidine-4-carboxamide] | 0.133 | 0.0322
9 | Cn1cncc1-c1ccnc(C(=O)N[C@@H]2CC[C@@H](O)C2)n1 [Compound 302, N-((1R,3R)-3-hydroxycyclopentyl)-4-(1-methyl-1H-imidazol-5-yl)pyrimidine-2-carboxamide] | 0.369 | 0.118
10 | O=C(N[C@H]1CC[C@H](CO)CC1)c1ccnc(-c2cncs2)n1 [Compound 140, N-((1r,4r)-4-(hydroxymethyl)cyclohexyl)-2-(thiazol-5-yl)pyrimidine-4-carboxamide] | 0.747 | 0.117
11 | COC[C@H]1CC[C@H](NC(=O)c2ccnc(-c3cncs3)n2)CC1 [Compound 139, N-((1r,4r)-4-(methoxymethyl)cyclohexyl)-2-(thiazol-5-yl)pyrimidine-4-carboxamide] | 1.01 | 0.232
12 | CO[C@H]1CC[C@H](NC(=O)c2cc(C(C)C)nc(-n3ccnc3)n2)CC1 [Compound 167, 2-(1H-imidazol-1-yl)-6-isopropyl-N-((1r,4r)-4-methoxycyclohexyl)pyrimidine-4-carboxamide] | 0.214 | 0.046
13 | CC(C)(C)c1cc(-n2ccnc2)nc(C(=O)Nc2ccc(C(F)F)nc2)n1 [Compound 188, 4-(tert-butyl)-N-(6-(difluoromethyl)pyridin-3-yl)-6-(1H-imidazol-1-yl)pyrimidine-2-carboxamide] | 1.97 | 0.661
14 | Cn1cncc1-c1ccnc(C(=O)NC2CC3(COC3)C2)n1 [Compound 306, 4-(1-methyl-1H-imidazol-5-yl)-N-(2-oxaspiro[3.3]heptan-6-yl)pyrimidine-2-carboxamide] | 0.357 | 0.0817
15 | O=C(NC1CC2(COC2)C1)c1nccc(-n2ccnc2)n1 [Compound 290, 4-(1H-imidazol-1-yl)-N-(2-oxaspiro[3.3]heptan-6-yl)pyrimidine-2-carboxamide] | 1.22 | 0.191
16 | O=C(N[C@H]1CC[C@H](O)CC1)c1nc(C(F)F)cc(-n2ccnc2)n1 [Compound 349, 4-(difluoromethyl)-N-((1r,4r)-4-hydroxycyclohexyl)-6-(1H-imidazol-1-yl)pyrimidine-2-carboxamide] | 0.128 | 0.0282
17 | CO[C@H]1CC[C@H](NC(=O)c2nc(C(F)F)cc(-n3ccnc3)n2)CC1 [Compound 346, 4-(difluoromethyl)-6-(1H-imidazol-1-yl)-N-((1r,4r)-4-methoxycyclohexyl)pyrimidine-2-carboxamide] | 0.109 | 0.0301

These reach a lower IC50 [1]. Values come first.

Row | IC50 [1] [µM] | IC50 [2] [µM] | Compound
18 | 0.0819 | 0.0062 | Cn1cncc1-c1cc(C(F)F)nc(C(=O)N[C@H]2CC[C@H](O)CC2)n1 [Compound 347, 4-(difluoromethyl)-N-((1r,4r)-4-hydroxycyclohexyl)-6-(1-methyl-1H-imidazol-5-yl)pyrimidine-2-carboxamide]
19 | 0.035 | 0.009 | Cn1cncc1-c1nc(C(=O)N[C@H]2CC[C@H](C(F)F)CC2)cc(C(C)(C)O)n1 [Compound 177, N-((1r,4r)-4-(difluoromethyl)cyclohexyl)-6-(2-hydroxypropan-2-yl)-2-(1-methyl-1H-imidazol-5-yl)pyrimidine-4-carboxamide]
20 | 0.034 | 0.0107 | CO[C@H]1CC[C@H](NC(=O)c2nc(-c3cncn3C)ncc2Cl)CC1 [Compound 329, 5-chloro-N-((1r,4r)-4-methoxycyclohexyl)-2-(1-methyl-1H-imidazol-5-yl)pyrimidine-4-carboxamide]
21 | 0.03 | 0.014 | O=C(NC1CCC(F)(F)CC1)c1cc(C2CCC2)nc(-n2ccnc2)n1 [Compound 185, 6-cyclobutyl-N-(4,4-difluorocyclohexyl)-2-(1H-imidazol-1-yl)pyrimidine-4-carboxamide]
22 | 0.0208 | 0.0042 | COCCO[C@H]1CC[C@H](NC(=O)c2cc(C3CCOCC3)nc(-c3cncn3C)n2)C1 [Compound 353, N-((1S,3S)-3-(2-methoxyethoxy)cyclopentyl)-2-(1-methyl-1H-imidazol-5-yl)-6-(tetrahydro-2H-pyran-4-yl)pyrimidine-4-carboxamide]
23 | 0.0159 | 0.0021 | Cn1cncc1-c1nc(C(=O)N[C@H]2CC[C@H](OC(F)F)CC2)cc(C2CCC(F)(F)CC2)n1 [Compound 324, 6-(4,4-difluorocyclohexyl)-N-((1r,4r)-4-(difluoromethoxy)cyclohexyl)-2-(1-methyl-1H-imidazol-5-yl)pyrimidine-4-carboxamide]
24 | 0.014 | 0.002 | CO[C@H]1CC[C@H](NC(=O)c2cc(C3CCC3)nc(-c3cncn3C)n2)CC1 [Compound 181, 6-Cyclobutyl-N-((1r,4r)-4-methoxycyclohexyl)-2-(1-methyl-1H-imidazol-5-yl)pyrimidine-4-carboxamide]
25 | 0.0124 | 0.0054 | Cn1cncc1-c1nc(C(=O)N[C@H]2CC[C@H](OC(F)(F)F)CC2)cc(C2CCOCC2)n1 [Compound 334, 2-(1-methyl-1H-imidazol-5-yl)-6-(tetrahydro-2H-pyran-4-yl)-N-((1r,4r)-4-(trifluoromethoxy)cyclohexyl)pyrimidine-4-carboxamide]
26 | 0.0104 | 0.0019 | Cn1cncc1-c1nc(C(=O)N[C@H]2CC[C@H](OCC(F)(F)F)CC2)cc(C2CCOCC2)n1 [Compound 337, 2-(1-methyl-1H-imidazol-5-yl)-6-(tetrahydro-2H-pyran-4-yl)-N-((1r,4r)-4-(2,2,2-trifluoroethoxy)cyclohexyl)pyrimidine-4-carboxamide]
27 | 0.0042 | 0.0169 | O=C(Nc1ccc(OC(F)F)nc1)c1nccc(-n2ccnc2)n1 [Compound 354, N-(6-(difluoromethoxy)pyridin-3-yl)-4-(1H-imidazol-1-yl)pyrimidine-2-carboxamide]
28 | 0.0034 | 0.0014 | Cc1cnc(-c2cncn2C)nc1C(=O)Nc1ccc(C(F)(F)F)nc1 [Compound 326, 5-methyl-2-(1-methyl-1H-imidazol-5-yl)-N-(6-(trifluoromethyl)pyridin-3-yl)pyrimidine-4-carboxamide]
